Measured values as given in the supplement of paper PMC10307832.

Tests used:
Test in all cases: relative viability (nuclei count vs DMSO), 5 days (fraction); higher = more cells survive
[1] = compound: O[C@H]1CC[C@H](Nc2ncc3nc(Nc4c(F)cc(F)cc4F)n([C@H]4CCOC4)c3n2)CC1 [Tanzisertib] + Cc1nc(NC(=O)N2CCC[C@H]2C(N)=O)sc1-c1ccnc(C(C)(C)C(F)(F)F)c1 [Alpelisib] (partner 2 µM)
In short: (§1)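 Relative viability is defined as nuclei in treated wells over nuclei in vehicle wells. Duplicate plates were run and medians reported. Lung cancer cell lines in 1536-well plates were dosed by pin tool one day after seeding, with one drug or with a fixed anchor-drug dose plus five library-drug doses (not always all listed) in √10 steps, and nuclei were counted after 5 days.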

[2] = compound: O[C@H]1CC[C@H](Nc2ncc3nc(Nc4c(F)cc(F)cc4F)n([C@H]4CCOC4)c3n2)CC1 [Tanzisertib] + C[C@@H](Oc1cc(-c2cnn(C3CCNCC3)c2)cnc1N)c1c(Cl)ccc(F)c1Cl [Crizotinib] (partner 1 µM)
In short: as §1

[3] = compound: O[C@H]1CC[C@H](Nc2ncc3nc(Nc4c(F)cc(F)cc4F)n([C@H]4CCOC4)c3n2)CC1 [Tanzisertib] + COc1cccc2cc(-c3nc([C@H]4CC[C@H](C(=O)O)CC4)n4ncnc(N)c34)[nH]c12 [OSI-027] (partner 0.5 µM)
In short: as §1

[4] = compound: O[C@H]1CC[C@H](Nc2ncc3nc(Nc4c(F)cc(F)cc4F)n([C@H]4CCOC4)c3n2)CC1 [Tanzisertib] + COc1cc2c(Oc3ccc(NC(=O)C4(C(=O)Nc5ccc(F)cc5)CC4)cc3F)ccnc2cc1OCCCN1CCOCC1 [Foretinib] (partner 0.25 µM)
In short: as §1

Cell Line: H3255
- relative viability ([1]; first compound 0.08 µM): 0.739
- relative viability ([1]; first compound 0.253 µM): 0.718
- relative viability ([1]; first compound 0.8 µM): 0.665
- relative viability ([1]; first compound 2.53 µM): 0.629
- relative viability ([1]; first compound 8 µM): 0.471
- relative viability ([2]; first compound 0.08 µM): 0.933
- relative viability ([2]; first compound 0.253 µM): 0.855
- relative viability ([2]; first compound 0.8 µM): 1.01
- relative viability ([2]; first compound 2.53 µM): 0.875
- relative viability ([2]; first compound 8 µM): 0.662
- relative viability ([3]; first compound 0.08 µM): 0.513
- relative viability ([3]; first compound 0.253 µM): 0.644
- relative viability ([3]; first compound 0.8 µM): 0.659
- relative viability ([3]; first compound 2.53 µM): 0.479
- relative viability ([3]; first compound 8 µM): 0.48
- relative viability ([4]; first compound 0.08 µM): 0.729
- relative viability ([4]; first compound 0.253 µM): 0.77
- relative viability ([4]; first compound 0.8 µM): 0.831
- relative viability ([4]; first compound 2.53 µM): 0.841
- relative viability ([4]; first compound 8 µM): 0.696

Cell Line: HARA
- relative viability ([1]; first compound 0.08 µM): 0.752
- relative viability ([1]; first compound 0.253 µM): 0.762
- relative viability ([1]; first compound 0.8 µM): 0.852
- relative viability ([1]; first compound 2.53 µM): 0.795
- relative viability ([1]; first compound 8 µM): 0.842
- relative viability ([2]; first compound 0.08 µM): 1.12
- relative viability ([2]; first compound 0.253 µM): 1.05
- relative viability ([2]; first compound 0.8 µM): 1.06
- relative viability ([2]; first compound 2.53 µM): 1.06
- relative viability ([2]; first compound 8 µM): 1.08
- relative viability ([3]; first compound 0.08 µM): 0.74
- relative viability ([3]; first compound 0.253 µM): 0.496
- relative viability ([3]; first compound 0.8 µM): 0.537
- relative viability ([3]; first compound 2.53 µM): 0.45
- relative viability ([3]; first compound 8 µM): 0.0888
- relative viability ([4]; first compound 0.08 µM): 0.817
- relative viability ([4]; first compound 0.253 µM): 0.925
- relative viability ([4]; first compound 0.8 µM): 0.86
- relative viability ([4]; first compound 2.53 µM): 0.889
- relative viability ([4]; first compound 8 µM): 0.74

Cell Line: HCC-15
- relative viability ([1]; first compound 0.08 µM): 1.04
- relative viability ([1]; first compound 0.253 µM): 0.884
- relative viability ([1]; first compound 0.8 µM): 0.924
- relative viability ([1]; first compound 2.53 µM): 0.874
- relative viability ([1]; first compound 8 µM): 0.797
- relative viability ([2]; first compound 0.08 µM): 0.877
- relative viability ([2]; first compound 0.253 µM): 0.811
- relative viability ([2]; first compound 0.8 µM): 0.88
- relative viability ([2]; first compound 2.53 µM): 0.818
- relative viability ([2]; first compound 8 µM): 0.872
- relative viability ([3]; first compound 0.08 µM): 0.834
- relative viability ([3]; first compound 0.253 µM): 0.652
- relative viability ([3]; first compound 0.8 µM): 0.735
- relative viability ([3]; first compound 2.53 µM): 0.606
- relative viability ([3]; first compound 8 µM): 0.327
- relative viability ([4]; first compound 0.08 µM): 1.13
- relative viability ([4]; first compound 0.253 µM): 1.05
- relative viability ([4]; first compound 0.8 µM): 1.11
- relative viability ([4]; first compound 2.53 µM): 1.02
- relative viability ([4]; first compound 8 µM): 1.08

Cell Line: HCC-44
- relative viability ([1]; first compound 0.08 µM): 0.839
- relative viability ([1]; first compound 0.253 µM): 0.834
- relative viability ([1]; first compound 0.8 µM): 0.852
- relative viability ([1]; first compound 2.53 µM): 0.768
- relative viability ([1]; first compound 8 µM): 0.75
- relative viability ([2]; first compound 0.08 µM): 0.907
- relative viability ([2]; first compound 0.253 µM): 0.824
- relative viability ([2]; first compound 0.8 µM): 0.822
- relative viability ([2]; first compound 2.53 µM): 0.89
- relative viability ([2]; first compound 8 µM): 0.817
- relative viability ([3]; first compound 0.08 µM): 0.665
- relative viability ([3]; first compound 0.253 µM): 0.557
- relative viability ([3]; first compound 0.8 µM): 0.546
- relative viability ([3]; first compound 2.53 µM): 0.561
- relative viability ([3]; first compound 8 µM): 0.353

Cell Line: HCC-78
- relative viability ([1]; first compound 0.08 µM): 0.322
- relative viability ([1]; first compound 0.253 µM): 0.304
- relative viability ([1]; first compound 0.8 µM): 0.309
- relative viability ([1]; first compound 2.53 µM): 0.372
- relative viability ([1]; first compound 8 µM): 0.34
- relative viability ([2]; first compound 0.08 µM): 0.287
- relative viability ([2]; first compound 0.253 µM): 0.331
- relative viability ([2]; first compound 0.8 µM): 0.313
- relative viability ([2]; first compound 2.53 µM): 0.332
- relative viability ([2]; first compound 8 µM): 0.286
- relative viability ([3]; first compound 0.08 µM): 0.344
- relative viability ([3]; first compound 0.253 µM): 0.376
- relative viability ([3]; first compound 0.8 µM): 0.396
- relative viability ([3]; first compound 2.53 µM): 0.382
- relative viability ([3]; first compound 8 µM): 0.316
- relative viability ([4]; first compound 0.08 µM): 0.545
- relative viability ([4]; first compound 0.253 µM): 0.614
- relative viability ([4]; first compound 0.8 µM): 0.584
- relative viability ([4]; first compound 2.53 µM): 0.583
- relative viability ([4]; first compound 8 µM): 0.585

Cell Line: HCC-366
- relative viability ([1]; first compound 0.08 µM): 0.438
- relative viability ([1]; first compound 0.253 µM): 0.346
- relative viability ([1]; first compound 0.8 µM): 0.295
- relative viability ([1]; first compound 2.53 µM): 0.377
- relative viability ([1]; first compound 8 µM): 0.287
- relative viability ([2]; first compound 0.08 µM): 0.651
- relative viability ([2]; first compound 0.253 µM): 0.523
- relative viability ([2]; first compound 0.8 µM): 0.671
- relative viability ([2]; first compound 2.53 µM): 0.492
- relative viability ([2]; first compound 8 µM): 0.515
- relative viability ([3]; first compound 0.08 µM): 0.968
- relative viability ([3]; first compound 0.253 µM): 0.888
- relative viability ([3]; first compound 0.8 µM): 0.942
- relative viability ([3]; first compound 2.53 µM): 0.977
- relative viability ([3]; first compound 8 µM): 0.051
- relative viability ([4]; first compound 0.08 µM): 0.917
- relative viability ([4]; first compound 0.253 µM): 0.918
- relative viability ([4]; first compound 0.8 µM): 0.922
- relative viability ([4]; first compound 2.53 µM): 0.975
- relative viability ([4]; first compound 8 µM): 0.917

Cell Line: IA-LM
- relative viability ([1]; first compound 0.08 µM): 0.908
- relative viability ([1]; first compound 0.253 µM): 0.802
- relative viability ([1]; first compound 0.8 µM): 0.83
- relative viability ([1]; first compound 2.53 µM): 0.85
- relative viability ([1]; first compound 8 µM): 0.956
- relative viability ([2]; first compound 0.08 µM): 0.927
- relative viability ([2]; first compound 0.253 µM): 0.544
- relative viability ([2]; first compound 2.53 µM): 0.948
- relative viability ([2]; first compound 8 µM): 0.87
- relative viability ([4]; first compound 0.08 µM): 1.02
- relative viability ([4]; first compound 0.253 µM): 1.28
- relative viability ([4]; first compound 0.8 µM): 1.04
- relative viability ([4]; first compound 2.53 µM): 1.28
- relative viability ([4]; first compound 8 µM): 1.09
